Test results taken from ChEMBL document CHEMBL3734713, “4-Thiazolidinone derivatives as potent antimicrobial agents: microwave-assisted synthesis, biological evaluation and docking studies” (2015).
In brackets after ≈: the same amount, converted by molar mass.

Key:
[1] = system: Bacillus cereus; experiment: Antibacterial activity against clinical isolates of Bacillus cereus assessed as growth inhibition after 24 hrs at 37 degC by iodonitrotetrazolium chloride staining based microdilution broth assay; type: functional
[2] = system: Micrococcus flavus; experiment: Antibacterial activity against Micrococcus flavus ATCC 10240 assessed as growth inhibition after 24 hrs at 37 degC by iodonitrotetrazolium chloride staining based microdilution broth assay; type: functional; settings: ATCC 10240, 24 h
[3] = system: Staphylococcus aureus; experiment: Antibacterial activity against Staphylococcus aureus ATCC 6538 assessed as growth inhibition after 24 hrs at 37 degC by iodonitrotetrazolium chloride staining based microdilution broth assay; type: functional; settings: ATCC 6538, 24 h
[4] = system: Listeria monocytogenes; experiment: Antibacterial activity against Listeria monocytogenes NCTC 7973 assessed as growth inhibition after 24 hrs at 37 degC by iodonitrotetrazolium chloride staining based microdilution broth assay; type: functional; settings: NCTC 7973, 24 h
[5] = system: Escherichia coli; experiment: Antibacterial activity against Escherichia coli ATCC 35210 assessed as growth inhibition after 24 hrs at 37 degC by iodonitrotetrazolium chloride staining based microdilution broth assay; type: functional; settings: ATCC 35210, 24 h
[6] = system: Enterobacter cloacae; experiment: Antibacterial activity against human isolate of Enterobacter cloacae assessed as growth inhibition after 24 hrs at 37 degC by iodonitrotetrazolium chloride staining based microdilution broth assay; type: functional
[7] = system: Pseudomonas aeruginosa; experiment: Antibacterial activity against Pseudomonas aeruginosa ATCC 27853 assessed as growth inhibition after 24 hrs at 37 degC by iodonitrotetrazolium chloride staining based microdilution broth assay; type: functional; settings: ATCC 27853, 24 h
[8] = system: Salmonella typhimurium; experiment: Antibacterial activity against Salmonella typhimurium ATCC 13311 assessed as growth inhibition after 24 hrs at 37 degC by iodonitrotetrazolium chloride staining based microdilution broth assay; type: functional, Salmonella enterica subsp. enterica serovar Typhimurium; settings: Salmonella enterica, ATCC 13311, 24 h
[9] = system: Aspergillus fumigatus; experiment: Antifungal activity against Aspergillus fumigatus ATCC 1022 assessed as growth inhibition after 72 hrs at 28 degC by serial dilution method; type: functional; settings: for MIC: Aspergillus fumigatus, ATCC 1022, 72 h
[10] = system: Aspergillus versicolor; experiment: Antifungal activity against Aspergillus versicolor ATCC 11730 assessed as growth inhibition after 72 hrs at 28 degC by serial dilution method; type: functional; settings: for MIC: Aspergillus versicolor, ATCC 11730, 72 h
[11] = system: Aspergillus ochraceus; experiment: Antifungal activity against Aspergillus ochraceus ATCC 12066 assessed as growth inhibition after 72 hrs at 28 degC by serial dilution method; type: functional; settings: for MIC: Aspergillus ochraceus, ATCC 12066, 72 h
[12] = system: Aspergillus niger; experiment: Antifungal activity against Aspergillus niger ATCC 6275 assessed as growth inhibition after 72 hrs at 28 degC by serial dilution method; type: functional; settings: for MIC: Aspergillus niger, ATCC 6275, 72 h
[13] = system: Trichoderma viride; experiment: Antifungal activity against Trichoderma viride IAM 5061 assessed as growth inhibition after 72 hrs at 28 degC by serial dilution method; type: functional; settings: for MIC: Trichoderma viride, IAM 5061, 72 h
[14] = system: Talaromyces funiculosus; experiment: Antifungal activity against Penicillium funiculosum ATCC 36839 assessed as growth inhibition after 72 hrs at 28 degC by serial dilution method; type: functional; settings: for MIC: Talaromyces funiculosus, ATCC 36839, 72 h
[15] = system: Penicillium ochrochloron; experiment: Antifungal activity against Penicillium ochrochloron ATCC 9112 assessed as growth inhibition after 72 hrs at 28 degC by serial dilution method; type: functional; settings: for MIC: Penicillium ochrochloron, ATCC 9112, 72 h
[16] = system: Candida albicans; experiment: Antifungal activity against Candida albicans ATCC 10231 assessed as growth inhibition after 72 hrs at 28 degC by serial dilution method; type: functional; settings: for MIC: Candida albicans, ATCC 10231, 72 h
[17] = biological target: Human immunodeficiency virus type 1 reverse transcriptase (Human immunodeficiency virus 1) (UniProt Q72547); experiment: Inhibition of HIV1 reverse transcriptase assessed as residual enzyme activity by measuring reduction in [3H]dTTP incorporation into poly(rA)-oligo(dT) at 4 uM incubated for 15 mins by scintillation counting method relative to control

| MIC [1] [µM] | MIC [2] [µM] | MIC [9] [µM] | MIC [10] [µM] | MIC [11] [µM] | MIC [12] [µM] | MIC [13] [µM] | MIC [14] [µM] | MIC [15] [µM] | MIC [16] [µM] | Compound | MBC [1] [µM] | MBC [2] [µM] | MFC99.5 [9] [×10⁻² umol/ml] | MFC99.5 [10] [×10⁻² umol/ml] | MFC99.5 [11] [×10⁻² umol/ml] | MFC99.5 [12] [×10⁻² umol/ml] | MFC99.5 [13] [×10⁻² umol/ml] | MFC99.5 [14] [×10⁻² umol/ml] | MFC99.5 [15] [×10⁻² umol/ml] | MFC99.5 [16] [×10⁻² umol/ml] | further results |
| --- | --- | --- | --- | --- | --- | --- | --- | --- | --- | --- | --- | --- | --- | --- | --- | --- | --- | --- | --- | --- | --- |
| 16.2 (≈ 7 µg/mL) | 62.5 (≈ 26.9 µg/mL) | 2.9 (≈ 1.25 µg/mL) | 0.3 (≈ 0.129 µg/mL) | 0.45 (≈ 0.194 µg/mL) | 0.3 (≈ 0.129 µg/mL) | 0.3 (≈ 0.129 µg/mL) | 2.9 (≈ 1.25 µg/mL) | 2.9 (≈ 1.25 µg/mL) | 5.8 (≈ 2.5 µg/mL) | O=C1CSC(c2cccc(Cl)c2)N1c1nc(C23CC4CC(CC(C4)C2)C3)cs1 (stereo not given) | 62.5 (≈ 26.9 µg/mL) | 125 (≈ 53.9 µg/mL) | 0.58 | 0.07 | 0.07 | 0.07 | 0.045 | 0.58 | 0.58 | 1.16 | MBC [3]: 62.5 µM (≈ 26.9 µg/mL); MIC [3]: 30.6 µM (≈ 13.2 µg/mL); MBC [4]: 125 µM (≈ 53.9 µg/mL); MIC [4]: 62.5 µM (≈ 26.9 µg/mL); MBC [5]: 125 µM (≈ 53.9 µg/mL); MIC [5]: 62.5 µM (≈ 26.9 µg/mL); MBC [6]: 125 µM (≈ 53.9 µg/mL); MIC [6]: 62.5 µM (≈ 26.9 µg/mL); MBC [7]: 125 µM (≈ 53.9 µg/mL); MIC [7]: 62.5 µM (≈ 26.9 µg/mL); MBC [8]: 62.5 µM (≈ 26.9 µg/mL); MIC [8]: 30.6 µM (≈ 13.2 µg/mL); Activity [17]: 99.3% |
| 300 (≈ 124 µg/mL) | 30.6 (≈ 12.7 µg/mL) | 0.8 (≈ 0.332 µg/mL) | 0.4 (≈ 0.166 µg/mL) | 0.4 (≈ 0.166 µg/mL) | 0.8 (≈ 0.332 µg/mL) | 1.2 (≈ 0.497 µg/mL) | 0.8 (≈ 0.332 µg/mL) | 0.4 (≈ 0.166 µg/mL) | 0.8 (≈ 0.332 µg/mL) | O=C1CSC(c2cccc(F)c2)N1c1nc(C23CC4CC(CC(C4)C2)C3)cs1 (stereo not given) | 500 (≈ 207 µg/mL) | 61.2 (≈ 25.4 µg/mL) | 0.14 | 0.14 | 0.14 | 0.14 | 0.14 | 0.14 | 0.14 | 0.14 | MBC [3]: 500 µM (≈ 207 µg/mL); MIC [3]: 300 µM (≈ 124 µg/mL); MBC [4]: 125 µM (≈ 51.8 µg/mL); MIC [4]: 15.3 µM (≈ 6.34 µg/mL); MBC [5]: 125 µM (≈ 51.8 µg/mL); MIC [5]: 15.3 µM (≈ 6.34 µg/mL); MBC [6]: 125 µM (≈ 51.8 µg/mL); MIC [6]: 30.6 µM (≈ 12.7 µg/mL); MBC [7]: 15.3 µM (≈ 6.34 µg/mL); MIC [7]: 9 µM (≈ 3.73 µg/mL); MBC [8]: 15.3 µM (≈ 6.34 µg/mL); MIC [8]: 9 µM (≈ 3.73 µg/mL); Activity [17]: 100% |
| 219 (≈ 100 µg/mL) | 219 (≈ 100 µg/mL) | 219 (≈ 100 µg/mL) | 219 (≈ 100 µg/mL) | 110 (≈ 50 µg/mL) | 219 (≈ 100 µg/mL) | 219 (≈ 100 µg/mL) | 219 (≈ 100 µg/mL) | 219 (≈ 100 µg/mL) | 876 (≈ 400 µg/mL) | COc1ccc(OC)c(C2SCC(=O)N2c2nc(C34CC5CC(CC(C5)C3)C4)cs2)c1 (stereo not given) | 438 (≈ 200 µg/mL) | 438 (≈ 200 µg/mL) | 32.85 | 32.85 | 32.85 | 87.6 | 21.9 | 43.8 | 43.8 | 109.5 | MBC [3]: 657 µM (≈ 300 µg/mL); MIC [3]: 438 µM (≈ 200 µg/mL); MBC [4]: 657 µM (≈ 300 µg/mL); MIC [4]: 438 µM (≈ 200 µg/mL); MBC [5]: 438 µM (≈ 200 µg/mL); MIC [5]: 219 µM (≈ 100 µg/mL); MBC [6]: 438 µM (≈ 200 µg/mL); MIC [6]: 219 µM (≈ 100 µg/mL); MBC [7]: 438 µM (≈ 200 µg/mL); MIC [7]: 438 µM (≈ 200 µg/mL); MBC [8]: 438 µM (≈ 200 µg/mL); MIC [8]: 219 µM (≈ 100 µg/mL); Activity [17]: 80.7% |

| Compound | MIC [1] [µM] | MIC [2] [µM] | MIC [9] [µM] | MIC [10] [µM] | MIC [11] [µM] | MIC [12] [µM] | MIC [13] [µM] | MIC [14] [µM] | MIC [15] [µM] | MIC [16] [µM] | MBC [1] [µM] | MBC [2] [µM] | MFC99.5 [9] [×10⁻² umol/ml] | MFC99.5 [10] [×10⁻² umol/ml] | MFC99.5 [11] [×10⁻² umol/ml] | MFC99.5 [12] [×10⁻² umol/ml] | MFC99.5 [13] [×10⁻² umol/ml] | MFC99.5 [14] [×10⁻² umol/ml] | MFC99.5 [15] [×10⁻² umol/ml] | MFC99.5 [16] [×10⁻² umol/ml] | further results |
| --- | --- | --- | --- | --- | --- | --- | --- | --- | --- | --- | --- | --- | --- | --- | --- | --- | --- | --- | --- | --- | --- |
| CC(=O)N1CCN(c2ccc(OCC3COC(Cn4ccnc4)(c4ccc(Cl)cc4Cl)O3)cc2)CC1 (stereo not given) [KETOCONAZOLE] |  |  | 380 (≈ 202 µg/mL) | 380 (≈ 202 µg/mL) | 380 (≈ 202 µg/mL) | 380 (≈ 202 µg/mL) | 4750 (≈ 2520 µg/mL) | 380 (≈ 202 µg/mL) | 3800 (≈ 2020 µg/mL) | 380 (≈ 202 µg/mL) |  |  | 95 | 95 | 95 | 95 | 570 | 95 | 380 | 95 |  |
